Data reported in patent US20160289236A1, “Protein Kinase Inhibitors” (PHARMASCIENCE INC., priority 2013, published 2016).

Legend:
[1] = biological target: T1, histidine tagged recombinant human full-length Bruton Agammaglobulinemia Tyrosine Kinase (Btk) (Homo sapiens, UniProt Q06187); assay: Btk kinase inhibition assay, Method A (fluorescence polarization, KinEASE FP Fluorescein Green); type: biochemical; details: 10 μM ATP, 250 μM substrate, 60 minutes, Ki calculated from IC50 with Cheng-Prusoff equation
T1 construct: histidine tagged recombinant human full-length Bruton Agammaglobulinemia Tyrosine Kinase (Btk); His tag
T1 sequence (Q06187 whole entry): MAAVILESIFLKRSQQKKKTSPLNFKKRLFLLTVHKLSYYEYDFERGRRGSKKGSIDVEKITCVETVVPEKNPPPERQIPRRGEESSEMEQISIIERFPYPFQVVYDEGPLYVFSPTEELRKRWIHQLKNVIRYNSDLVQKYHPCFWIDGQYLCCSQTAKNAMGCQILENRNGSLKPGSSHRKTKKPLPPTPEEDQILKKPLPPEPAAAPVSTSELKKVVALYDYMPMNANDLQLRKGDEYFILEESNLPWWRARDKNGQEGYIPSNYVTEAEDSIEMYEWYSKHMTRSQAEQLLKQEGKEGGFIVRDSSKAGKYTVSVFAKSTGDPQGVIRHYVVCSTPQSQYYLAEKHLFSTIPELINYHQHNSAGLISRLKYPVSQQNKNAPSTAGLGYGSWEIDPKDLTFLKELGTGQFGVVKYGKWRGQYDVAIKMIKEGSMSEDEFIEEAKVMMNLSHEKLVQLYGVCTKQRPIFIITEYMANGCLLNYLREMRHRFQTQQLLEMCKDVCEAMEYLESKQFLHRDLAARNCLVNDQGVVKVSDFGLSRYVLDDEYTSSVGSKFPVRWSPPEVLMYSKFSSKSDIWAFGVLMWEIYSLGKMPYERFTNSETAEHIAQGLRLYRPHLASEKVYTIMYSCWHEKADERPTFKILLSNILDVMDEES
Description: Fluorescence polarization-based kinase assays were performed in 384 well-plate format using histidine tagged recombinant human full-length Bruton Agammaglobulinemia Tyrosine Kinase (Btk), and a modified protocol of the KinEASE™ FP Fluorescein Green Assay supplied from Millipore®. Kinase reaction were performed at room temperature for 60 minutes, in presence of 250 μM substrate, 10 μM ATP, and variable test article concentrations. The reaction was stopped with EDTA/kinease detection reagents. Phosphorylation of the substrate peptide was detected by fluorescence polarization, measured with a Tecan 500 instrument. From the dose-response curve obtained, the IC50 was calculated using Graph Pad Prisms®, using a non linear fit curve. The Km for ATP on each enzyme was experimentally determined and the Ki values calculated using the Cheng-Prusoff equation (see: Cheng Y, Prusoff W H. (1973) Relationship between the inhibition constant (K1), and the concentration of inhibitor which causes 50% inhibition (I50) of an enzymatic reaction”. Biochem Pharmacol 22 (23): 3099-108).

splenocytes = assay: Splenic cell proliferation assay (anti-IgM stimulated, Cell Titer-Glo); type: cell-based; details: Splenocyte; CD1 mouse splenocytes, 2.5 ug/ml anti-IgM F(ab')2 for 72 h, 1 h compound pre-treatment; read-out: EC50 (nM), Inhibition of splenic cell proliferation
Description: Proliferation of splenocytes in response to anti-IgM can be blocked by inhibition of Btk. Splenocytes were obtained from 6 week old male CD1 mice (Charles River Laboratories Inc.). Mouse spleens were manually disrupted in PBS and filtered using a 70 um cell strainer followed by ammonium chloride red blood cell lysis. Cells were washed, resuspended in Splenocyte Medium (HyClone RPMI supplemented with 10% heat-inactivated FBS, 0.5× non-essential amino acids, 10 mM HEPES, 50 uM beta mercaptoethanol), and incubated at 37° C., 5% CO2 for 2 h, to remove adherent cells. Suspension cells were seeded in 96 well plates, at 50,000 cells per well, and incubated at 37° C., 5% CO2 for 1 h. Splenocytes were pre-treated in triplicate with 10,000 nM curves of Formula I, compounds for 1 h, followed by stimulation of cell proliferation with 2.5 ug/ml anti-IgM F(ab′)2 (Jackson Immuno Research) for 72 h. Cell proliferation was measured by Cell Titer-Glo Luminescent Assay (Promega). EC50 values (50% proliferation in the presence of compound, as compared to vehicle treated controls) were calculated from dose response compound curves using GraphPad Prism Software.

human BTK kinase (hBTK) = biological target: T2, human BTK kinase (hBTK) (Homo sapiens, UniProt Q06187); assay: Btk kinase inhibition assay, Method B (KinaseProfiler radiometric protein kinase assay, Eurofins); type: biochemical; details: [γ-33P-ATP], 250 μM substrate, 40 minutes
T2 construct: purchased Eurofins Pharma Discovery Services UK Limited
T2 sequence (Q06187 whole entry): as above
Description: In vitro potency of selected compound was defined against human BTK kinase (hBTK) using KinaseProfiler radiometric protein kinase assays performed at Eurofins Pharma Discovery Services UK Limited.
hBTK kinase is diluted in buffer and all compounds were prepared to 50× final assay concentration in 100% DMSO. This working stock of the compound was added to the assay well as the first component in the reaction, followed by the remaining components as detailed in the assay protocol listed above. The reaction was initiated by the addition of the MgATP mix. The kinase reaction was performed at room temperature for 40 minutes, in presence of 250 μM substrate, 10 mM MgAcetate, [γ-33P-ATP] (specific activity approx. 500 cpm/pmol, concentration as required) and variable test article concentrations. The ATP concentrations in the assays were with 15 μM of the apparent. The reaction was stopped by the addition of 3% phosphoric acid solution. 10 μL of the reaction is then spotted onto a P30 filtermat and washed three times for 5 minutes in 75 mM phosphoric acid and once in methanol, prior to drying, and scintillation counting. […]

| SMILES | Ki [1] [nM] | EC50 (splenocytes) [nM] | EC50 (human BTK kinase (hBTK)) [nM] |
| --- | --- | --- | --- |
| Cc1ncc(COc2cc(F)cc(Oc3ccc(-n4cc(C5CCOCC5)c5ncnc(N)c54)cc3)c2)s1 [Compound 6] | < 100 | < 100 | – |
| Cc1ccc(COc2cc(F)cc(Oc3ccc(-n4cc(C5CCCC5)c5ncnc(N)c54)cc3)c2)cn1 [Compound 4] | – | < 100 | – |
| Cc1ncc(COc2cc(F)cc(Oc3ccc(-n4cc(C(C)C)c5ncnc(N)c54)cc3)c2)cn1 [Compound 9] | < 100 | < 100 | – |
| Cc1ncc(COc2cc(F)cc(Oc3ccc(-n4cc(C5CCCC5)c5ncnc(N)c54)cc3)c2)s1 [Compound 3] | – | < 100 | – |
| Cc1ccc(COc2cc(F)cc(Oc3ccc(-n4cc(C5CCOCC5)c5ncnc(N)c54)cc3)c2)cn1 [Compound 5] | < 100 | < 100 | – |
| Cc1ncc(COc2cc(F)cc(Oc3ccc(-n4cc(C5CCCC5)c5ncnc(N)c54)cc3)c2)cn1 [Compound 8] | – | < 100 | – |
| Cc1ncc(COc2cc(F)cc(Oc3ccc(-n4cc(C(C)C)c5ncnc(N)c54)cc3)c2)s1 [Compound 2] | < 100 | < 100 | – |
| Cc1ncc(COc2cc(F)cc(Oc3ccc(-n4cc(C5CC(CO)C5)c5ncnc(N)c54)cc3)c2)cn1 (stereo not drawn) [Compound 10] | – | < 100 | – |
| Cc1ccc(COc2cc(F)cc(Oc3ccc(-n4cc(C(C)C)c5ncnc(N)c54)cc3)c2)cn1 [Compound 1] | < 100 | < 100 | – |
| Cc1ncc(COc2cc(F)cc(Oc3ccc(-n4cc([C@H]5C[C@@H](O)C5)c5ncnc(N)c54)cc3)c2)cn1 [Compound 11] | – | < 100 | < 100 |
| Cc1ncc(COc2cc(F)cc(Oc3ccc(-n4cc(C5CCOCC5)c5ncnc(N)c54)cc3)c2)cn1 [Compound 7] | < 100 | < 100 | – |
